{"source": "paper PMC11470957", "about": "“Principles of paralog-specific targeted protein degradation engaging the C-degron E3 KLHDC2” (Nature Communications, 2024)", "molecular_target": "BRD3 (Homo sapiens, UniProt Q15059)", "sequence (Q15059 whole entry)": "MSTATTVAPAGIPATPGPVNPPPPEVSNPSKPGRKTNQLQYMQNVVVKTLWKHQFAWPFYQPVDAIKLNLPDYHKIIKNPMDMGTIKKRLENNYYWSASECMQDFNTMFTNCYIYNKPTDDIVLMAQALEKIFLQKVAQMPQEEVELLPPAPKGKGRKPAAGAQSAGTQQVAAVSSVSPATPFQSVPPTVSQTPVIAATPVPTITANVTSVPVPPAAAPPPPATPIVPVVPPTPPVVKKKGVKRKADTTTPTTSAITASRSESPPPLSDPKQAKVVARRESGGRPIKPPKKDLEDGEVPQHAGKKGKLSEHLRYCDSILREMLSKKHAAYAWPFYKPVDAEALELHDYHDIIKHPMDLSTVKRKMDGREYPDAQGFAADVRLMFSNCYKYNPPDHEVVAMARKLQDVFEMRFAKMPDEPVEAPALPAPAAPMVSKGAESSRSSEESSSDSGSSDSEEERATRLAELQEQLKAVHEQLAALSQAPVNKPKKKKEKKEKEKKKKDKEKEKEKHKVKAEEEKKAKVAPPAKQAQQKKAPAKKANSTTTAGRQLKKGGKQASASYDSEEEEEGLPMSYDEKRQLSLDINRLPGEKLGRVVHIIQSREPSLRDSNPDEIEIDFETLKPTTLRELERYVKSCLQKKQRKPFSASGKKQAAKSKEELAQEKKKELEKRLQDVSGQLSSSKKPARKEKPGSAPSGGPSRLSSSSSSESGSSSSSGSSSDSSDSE", "assay": "Western blot of BRD3 levels after cellular dosing", "settings": "for remaining activity at 2.19382 µM: Log SJ46420 (uM) 2.19382; for remaining activity at 2.19382 µM / remaining activity at 2.49485 µM / remaining activity at 2.79588 µM / remaining activity at 3.09691 µM / remaining activity at 3.39794 µM: Rep1, Rep2; for remaining activity at 2.49485 µM: Log SJ46420 (uM) 2.49485; for remaining activity at 2.79588 µM: Log SJ46420 (uM) 2.79588; for remaining activity at 3.09691 µM: Log SJ46420 (uM) 3.09691; for remaining activity at 3.39794 µM: Log SJ46420 (uM) 3.39794", "key": {"[1]": {"settings": "22Rv1, read-out: BRD3 (DMSO = 100), 22Rv1 cells"}, "[2]": {"settings": "PC-3, read-out: BRD3 (DMSO = 100), PC3 cells"}}, "note": "Read-outs that look alike come from different tables or passages of the source.", "data": [{"compound": "COC(=O)CNC(=O)Cc1csc(-c2ccc3cccc(OCCN4CCN(C(=O)C[C@@H]5N=C(c6ccc(Cl)cc6)c6c(sc(C)c6C)-n6c(C)nnc65)CC4)c3c2)n1", "note": "[SJ46420]", "values": [{"measurement": "remaining activity at 0.63 µM", "setting": "22Rv1, 24 h, read-out: BRD3 level relative to DMSO (100%), 22Rv1, 0.63µM, 24 h, Fig S6f", "result": "45 ± 4.6", "unit": "%"}, {"measurement": "remaining activity at 1.3 µM", "setting": "22Rv1, 24 h, read-out: BRD3 level relative to DMSO (100%), 22Rv1, 1.3µM, 24 h, Fig S6f", "result": "27 ± 2.2", "unit": "%"}, {"measurement": "remaining activity at 2.5 µM", "setting": "22Rv1, 24 h, read-out: BRD3 level relative to DMSO (100%), 22Rv1, 2.5µM, 24 h, Fig S6f", "result": "21 ± 3.7", "unit": "%"}, {"measurement": "remaining activity at 5 µM", "setting": "22Rv1, 24 h, read-out: BRD3 level relative to DMSO (100%), 22Rv1, 5µM, 24 h, Fig S6f", "result": "4.3 ± 3.5", "unit": "%"}, {"measurement": "remaining activity at 10 µM", "setting": "22Rv1, 24 h, read-out: BRD3 level relative to DMSO (100%), 22Rv1, 10µM, 24 h, Fig S6f", "result": "2.9 ± 2.8", "unit": "%"}, {"measurement": "remaining activity at 2.19382 µM", "setting": "[1]", "result": 71.3, "unit": "%"}, {"measurement": "remaining activity at 2.49485 µM", "setting": "[1]", "result": 46.9, "unit": "%"}, {"measurement": "remaining activity at 2.79588 µM", "setting": "[1]", "result": 42.3, "unit": "%"}, {"measurement": "remaining activity at 3.09691 µM", "setting": "[1]", "result": 29.2, "unit": "%"}, {"measurement": "remaining activity at 3.39794 µM", "setting": "[1]", "result": 23.9, "unit": "%"}, {"measurement": "Dmax", "setting": "22Rv1, read-out: BRD3 Dmax, 22Rv1, 24 h dose", "result": 93.7, "unit": "%"}, {"measurement": "remaining activity at 0.156 µM", "setting": "22Rv1, read-out: BRD3 level, Western blot quantification (DMSO = 100), Fig S6f, 22RV1 KO/rescue Dose Response, 0.156 uM", "result": 71.3, "unit": "%"}, {"measurement": "remaining activity at 0.313 µM", "setting": "22Rv1, read-out: BRD3 level, Western blot quantification (DMSO = 100), Fig S6f, 22RV1 KO/rescue Dose Response, 0.313 uM", "result": 46.9, "unit": "%"}, {"measurement": "remaining activity at 0.625 µM", "setting": "22Rv1, read-out: BRD3 level, Western blot quantification (DMSO = 100), Fig S6f, 22RV1 KO/rescue Dose Response, 0.625 uM", "result": 42.3, "unit": "%"}, {"measurement": "remaining activity at 1.25 µM", "setting": "22Rv1, read-out: BRD3 level, Western blot quantification (DMSO = 100), Fig S6f, 22RV1 KO/rescue Dose Response, 1.25 uM", "result": 29.2, "unit": "%"}, {"measurement": "remaining activity at 2.5 µM", "setting": "22Rv1, read-out: BRD3 level, Western blot quantification (DMSO = 100), Fig S6f, 22RV1 KO/rescue Dose Response, 2.5 uM", "result": 23.9, "unit": "%"}, {"measurement": "remaining activity at 0.16 µM", "setting": "24 h, read-out: BRD3 level relative to DMSO (100%), PC3, 0.16µM, 24 h, Fig S6e", "result": "107 ± 8.6", "unit": "%"}, {"measurement": "remaining activity at 0.31 µM", "setting": "24 h, read-out: BRD3 level relative to DMSO (100%), PC3, 0.31µM, 24 h, Fig S6e", "result": "72 ± 3.2", "unit": "%"}, {"measurement": "remaining activity at 0.63 µM", "setting": "24 h, read-out: BRD3 level relative to DMSO (100%), PC3, 0.63µM, 24 h, Fig S6e", "result": "32 ± 5", "unit": "%"}, {"measurement": "remaining activity at 1.3 µM", "setting": "24 h, read-out: BRD3 level relative to DMSO (100%), PC3, 1.3µM, 24 h, Fig S6e", "result": "13 ± 2.8", "unit": "%"}, {"measurement": "remaining activity at 2.5 µM", "setting": "24 h, read-out: BRD3 level relative to DMSO (100%), PC3, 2.5µM, 24 h, Fig S6e", "result": "7.3 ± 2.7", "unit": "%"}, {"measurement": "remaining activity at 5 µM", "setting": "24 h, read-out: BRD3 level relative to DMSO (100%), PC3, 5µM, 24 h, Fig S6e", "result": "4.8 ± 2.4", "unit": "%"}, {"measurement": "remaining activity at 10 µM", "setting": "24 h, read-out: BRD3 level relative to DMSO (100%), PC3, 10µM, 24 h, Fig S6e", "result": "1.8 ± 2.1", "unit": "%"}, {"measurement": "BRD3 levels in U2OS cell line with KLHDC2 knocked out", "setting": "24 h dose, Fig 6b", "result": "unaffected"}, {"measurement": "remaining activity at 0.2 µM", "setting": "AU565, 8 h, read-out: BRD3 level relative to DMSO (100%), AU565, 0.2µM, 8 h, Fig S6c", "result": "56 ± 3.4", "unit": "%"}, {"measurement": "remaining activity at 1 µM", "setting": "AU565, 8 h, read-out: BRD3 level relative to DMSO (100%), AU565, 1µM, 8 h, Fig S6c", "result": "29 ± 2.4", "unit": "%"}, {"measurement": "remaining activity at 5 µM", "setting": "AU565, 8 h, read-out: BRD3 level relative to DMSO (100%), AU565, 5µM, 8 h, Fig S6c", "result": "3.9 ± 1.1", "unit": "%"}, {"measurement": "remaining activity at 0.2 µM", "setting": "AU565, read-out: BRD3 level, Western blot quantification (DMSO = 100), Fig S6c, AU565 Cells, 0.2 uM", "result": 58.8, "unit": "%"}, {"measurement": "remaining activity at 1 µM", "setting": "AU565, read-out: BRD3 level, Western blot quantification (DMSO = 100), Fig S6c, AU565 Cells, 1 uM", "result": 30.4, "unit": "%"}, {"measurement": "remaining activity at 5 µM", "setting": "AU565, read-out: BRD3 level, Western blot quantification (DMSO = 100), Fig S6c, AU565 Cells, 5 uM", "result": 4.75, "unit": "%"}, {"measurement": "remaining activity at 2.5 µM", "setting": "HEK-293T, 24 h, read-out: BRD3 level relative to DMSO (100%), 293T, 2.5µM, 24 h, Fig S6a", "result": "44 ± 2.3", "unit": "%"}, {"measurement": "remaining activity at 5 µM", "setting": "HEK-293T, 24 h, read-out: BRD3 level relative to DMSO (100%), 293T, 5µM, 24 h, Fig S6a", "result": "18 ± 3.7", "unit": "%"}, {"measurement": "remaining activity at 2.5 µM", "setting": "HEK-293T, read-out: BRD3 level, Western blot quantification (DMSO = 100), Fig S6a, 293T cells, 2.5 uM", "result": 46, "unit": "%"}, {"measurement": "remaining activity at 5 µM", "setting": "HEK-293T, read-out: BRD3 level, Western blot quantification (DMSO = 100), Fig S6a, 293T cells, 5 uM", "result": 20.9, "unit": "%"}, {"measurement": "remaining activity at 2.5 µM", "setting": "MDA-MB-468, 24 h, read-out: BRD3 level relative to DMSO (100%), MDA-MB-468, 2.5µM, 24 h, Fig S6b", "result": "41 ± 3.3", "unit": "%"}, {"measurement": "remaining activity at 5 µM", "setting": "MDA-MB-468, 24 h, read-out: BRD3 level relative to DMSO (100%), MDA-MB-468, 5µM, 24 h, Fig S6b", "result": "20 ± 2.9", "unit": "%"}, {"measurement": "remaining activity at 10 µM", "setting": "MDA-MB-468, 24 h, read-out: BRD3 level relative to DMSO (100%), MDA-MB-468, 10µM, 24 h, Fig S6b", "result": "15 ± 2.2", "unit": "%"}, {"measurement": "remaining activity at 2 µM", "setting": "MDA-MB-468, read-out: BRD3 level, Western blot quantification (DMSO = 100), Fig S6b, MDA-MB468 Cells, 2 uM", "result": 39.3, "unit": "%"}, {"measurement": "remaining activity at 5 µM", "setting": "MDA-MB-468, read-out: BRD3 level, Western blot quantification (DMSO = 100), Fig S6b, MDA-MB468 Cells, 5 uM", "result": 17.8, "unit": "%"}, {"measurement": "remaining activity at 10 µM", "setting": "MDA-MB-468, read-out: BRD3 level, Western blot quantification (DMSO = 100), Fig S6b, MDA-MB468 Cells, 10 uM", "result": 13.8, "unit": "%"}, {"measurement": "selectivity for BRD3 over BRD4 (DC50)", "setting": "PC3", "result": "~ 28 fold"}, {"measurement": "remaining activity at 2.19382 µM", "setting": "[2]", "result": 108, "unit": "%"}, {"measurement": "remaining activity at 2.49485 µM", "setting": "[2]", "result": 70.7, "unit": "%"}, {"measurement": "remaining activity at 2.79588 µM", "setting": "[2]", "result": 29.3, "unit": "%"}, {"measurement": "remaining activity at 3.09691 µM", "setting": "[2]", "result": 11.3, "unit": "%"}, {"measurement": "remaining activity at 3.39794 µM", "setting": "[2]", "result": 5.44, "unit": "%"}, {"measurement": "remaining activity at 1 µM", "setting": "SK-BR-3, 2 h, read-out: BRD3 level relative to DMSO (100%), SKBR3, 1µM, 2hr, Fig S6g", "result": "49 ± 6.7", "unit": "%"}, {"measurement": "remaining activity at 5 µM", "setting": "SK-BR-3, 2 h, read-out: BRD3 level relative to DMSO (100%), SKBR3, 5µM, 2hr, Fig S6g", "result": "35 ± 5.2", "unit": "%"}, {"measurement": "remaining activity at 1 µM", "setting": "SK-BR-3, 2 h, read-out: BRD3 level, Western blot quantification (DMSO = 100), Fig S6g, SKBR3 Time course, 1 uM, 2hr", "result": 54.5, "unit": "%"}, {"measurement": "remaining activity at 5 µM", "setting": "SK-BR-3, 2 h, read-out: BRD3 level, Western blot quantification (DMSO = 100), Fig S6g, SKBR3 Time course, 5 uM, 2hr", "result": 39.4, "unit": "%"}, {"measurement": "remaining activity at 1 µM", "setting": "SK-BR-3, 4 h, read-out: BRD3 level relative to DMSO (100%), SKBR3, 1µM, 4hr, Fig S6g", "result": "36 ± 6.9", "unit": "%"}, {"measurement": "remaining activity at 5 µM", "setting": "SK-BR-3, 4 h, read-out: BRD3 level relative to DMSO (100%), SKBR3, 5µM, 4hr, Fig S6g", "result": "13 ± 2.9", "unit": "%"}, {"measurement": "remaining activity at 5 µM", "setting": "SK-BR-3, 4 h, read-out: BRD3 level relative to DMSO (100%), SKBR3, 5µM, 4hr, Fig S6j", "result": "31 ± 5.6", "unit": "%"}, {"measurement": "remaining activity at 1 µM", "setting": "SK-BR-3, 4 h, read-out: BRD3 level, Western blot quantification (DMSO = 100), Fig S6g, SKBR3 Time course, 1 uM, 4hr", "result": 41.9, "unit": "%"}, {"measurement": "remaining activity at 5 µM", "setting": "SK-BR-3, 4 h, read-out: BRD3 level, Western blot quantification (DMSO = 100), Fig S6g, SKBR3 Time course, 5 uM, 4hr", "result": 15.1, "unit": "%"}, {"measurement": "remaining activity at 1 µM", "setting": "SK-BR-3, 8 h, read-out: BRD3 level relative to DMSO (100%), SKBR3, 1µM, 8hr, Fig S6g", "result": "32 ± 3.5", "unit": "%"}, {"measurement": "remaining activity at 5 µM", "setting": "SK-BR-3, 8 h, read-out: BRD3 level relative to DMSO (100%), SKBR3, 5µM, 8hr, Fig S6g", "result": "8.8 ± 2.6", "unit": "%"}, {"measurement": "remaining activity at 1 µM", "setting": "SK-BR-3, 8 h, read-out: BRD3 level, Western blot quantification (DMSO = 100), Fig S6g, SKBR3 Time course, 1 uM, 8hr", "result": 35, "unit": "%"}]}]}
